Results: the NIST ThermoML archive (doi:10.1021/acs.jced.7b00378)

Assays:
[1] = refractive index (Na D-line) (dimensionless); wn = mass fraction of the nth substance listed; settings: 100 kPa, Liquid, Standard Abbe refractometry
[2] = wn = mass fraction of the nth substance listed; settings: 100 kPa, Liquid, Vibrating tube method

O=S(=O)([O-])[O-].[Mg+2] [magnesium sulfate] + O
Settings | mass density, [2] [kg/m3] | refractive index, [1]
288.15 K, w1 = 0.2409 | 1274.47 | 1.384
298.15 K, w1 = 0.2768 | 1302.41 | 1.3895
308.15 K, w1 = 0.2974 | 1325.91 | 1.3902
